Measured values as given in PubChem BioAssay (NCI).
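96-well plates; 48 h exposure; 5 concentrations. Endpoints by linear interpolation between flanking doses. Not reached: highest tested concentration assigned. TGI marks complete inhibition of growth.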

Experiments:
Assay in all cases: NCI anticancer screen, dose series, 48 h
SK-MEL-2 melanoma = test system: SK-MEL-2 melanoma
A549 NSCLC = test system: A549 NSCLC
OVCAR-8 ovarian = test system: OVCAR-8 ovarian
HL-60(TB) leukemia = test system: HL-60(TB) leukemia
MOLT-4 leukemia = test system: MOLT-4 leukemia
SF-295 CNS = test system: SF-295 CNS
PC-3 prostate = test system: PC-3 prostate
HCT-116 colon = test system: HCT-116 colon
DU-145 prostate = test system: DU-145 prostate
MALME-3M melanoma = test system: MALME-3M melanoma
K-562 leukemia = test system: K-562 leukemia
HCC-2998 colon = test system: HCC-2998 colon
RPMI-8226 leukemia = test system: RPMI-8226 leukemia
NCI-H226 lung = test system: NCI-H226 lung
HOP-92 NSCLC = test system: HOP-92 NSCLC
MDA-MB-435 = test system: MDA-MB-435
SNB-75 CNS = test system: SNB-75 CNS
A498 renal = test system: A498 renal
NCI-H522 lung = test system: NCI-H522 lung
SF-268 CNS = test system: SF-268 CNS

Row | SMILES | TGI (SK-MEL-2 melanoma) [µM] | TGI (A549 NSCLC) [µM] | TGI (OVCAR-8 ovarian) [µM] | TGI (HL-60(TB) leukemia) [µM] | TGI (MOLT-4 leukemia) [µM] | TGI (SF-295 CNS) [µM] | TGI (PC-3 prostate) [µM] | TGI (HCT-116 colon) [µM] | TGI (DU-145 prostate) [µM] | TGI (MALME-3M melanoma) [µM] | TGI (K-562 leukemia) [µM] | TGI (HCC-2998 colon) [µM] | TGI (RPMI-8226 leukemia) [µM] | TGI (NCI-H226 lung) [µM] | TGI (HOP-92 NSCLC) [µM] | TGI (MDA-MB-435) [µM] | TGI (SNB-75 CNS) [µM] | TGI (A498 renal) [µM] | TGI (NCI-H522 lung) [µM] | TGI (SF-268 CNS) [µM]
1 | COCn1c(C)c(C)c2c(=O)oc(N(C)C)nc21 | > 100 | > 100 | > 100 | > 100 | > 100 | > 100 | > 100 | > 100 | > 100 | > 100 | > 100 | > 100 | > 100 | > 100 | > 100 | > 100 | > 100 | > 100 | > 100 | –
2 | Cc1ccc(NC2=N/C(=C/c3ccccc3)C(Cl)=N2)cc1 | > 100 | > 100 | > 100 | > 63.3 | > 100 | > 100 | > 100 | > 100 | > 100 | > 100 | > 100 | > 100 | > 100 | > 100 | > 100 | > 100 | > 100 | > 100 | > 100 | > 100
3 | COc1ccc(/C(CC2OC(=O)c3ccccc32)=N\NC(=O)C[N+](C)(C)C)cc1 (stereo unspecified) | 94.2 | > 100 | 52.9 | > 100 | 70.2 | > 100 | > 100 | 81.9 | 63.4 | > 100 | 48.4 | 30.9 | 39.6 | 62.6 | 67.8 | 71.9 | 75.6 | 60.1 | 64.1 | > 100
4 | C/C(=N\NC(=S)N(C)CCN(C)C(=S)N/N=C(\C)c1ccccn1)c1ccccn1 | 24.4 | 13.8 | 7.32 | 3.95 | 46.3 | 19.6 | 18.8 | 11.5 | 13.1 | 11.1 | 29.1 | 38 | 23.7 | 3.48 | 16.4 | > 100 | 7.59 | 3 | 18.8 | 12
5 | c1ccc(C(=NNc2cnc3ccccc3n2)c2ccccn2)cc1 | 26.2 | 15 | 2.68 | 12.3 | 11.4 | 12.8 | 19.2 | > 36.6 | > 61.3 | 23 | > 67.5 | 19.9 | > 36.8 | 40.6 | 28.3 | > 47.6 | 31.4 | > 100 | 12.3 | 13.6
6 | O=[N+]([O-])c1cc(Cl)cc2cc(Br)cnc12 | > 100 | > 31.6 | > 31.6 | > 31.6 | > 31.6 | > 31.6 | > 31.6 | > 31.6 | > 31.6 | > 31.6 | > 31.6 | > 31.6 | > 31.6 | > 31.6 | > 23.5 | > 31.6 | > 31.6 | > 31.6 | > 31.6 | –
7 | CN(C)CCCCN1c2ccccc2Sc2ccc(C(=O)c3ccccc3)cc21 | 6.59 | 7.22 | 7.91 | 3.97 | 6.31 | 4.82 | 6.4 | 4.9 | 10.7 | 3.33 | 3.36 | 3.97 | > 100 | 22.8 | 8.99 | 3.51 | 6.92 | 32.5 | 6.84 | 17.7
8 | NCCC(=O)N[C@@H](Cc1cc(O)c(O)c(SCC(NC(=O)CC[C@H](N)C(=O)O)C(=O)NCC(=O)O)c1)C(=O)O (stereo partly specified) | > 50 | > 50 | – | – | > 50 | > 50 | > 50 | > 50 | > 50 | > 50 | > 50 | > 50 | > 50 | > 50 | > 50 | > 50 | > 50 | > 50 | > 50 | > 50
9 | CC(C)SC(NC(=O)C1C(C)(C)CCC1(C)C)C(=O)O (stereo unspecified) | > 100 | > 100 | > 100 | > 100 | – | – | > 100 | > 100 | > 100 | – | > 100 | > 100 | > 100 | > 100 | > 100 | > 100 | > 100 | > 100 | – | > 100
10 | Cc1cc(-c2nc3ccc(F)cc3s2)ccc1N | > 100 | > 100 | > 100 | – | > 100 | > 100 | > 100 | > 100 | > 100 | > 100 | > 100 | > 100 | > 100 | > 100 | > 100 | > 100 | > 100 | > 100 | > 100 | > 100
11 | CC(C)=CCN1c2ccc(Cl)cc2NC(=O)CC1C (stereo unspecified) | 39.5 | > 100 | 39.6 | > 100 | > 100 | > 100 | 61.1 | 38 | > 100 | 49.6 | > 100 | > 100 | 50.1 | 46.9 | 37.8 | 41.1 | – | 49 | 47.4 | > 100
12 | COC(=O)/C=C\C(C#N)(C#N)N=Cc1ccc(Br)s1 | 33.2 | 45.4 | 19.1 | 5.04 | > 100 | 33 | 26.8 | 34.8 | 24.5 | 4.27 | > 100 | 34.4 | 7.11 | 12.4 | 4.67 | 13.9 | 29.4 | 31.5 | 3.33 | 40.2
13 | CN(C)Cc1cc(C=O)cc(CN(C)C)c1O | – | > 100 | > 100 | > 100 | > 100 | > 100 | > 100 | > 100 | > 100 | > 100 | > 100 | > 100 | > 100 | > 100 | > 100 | > 100 | > 100 | > 100 | > 100 | > 100
14 | C[C@]12CC[C@H](O)CC1=CC[C@@H]1[C@@H]2CC[C@]2(C)C(=N/O)/C(=C/c3ccc([N+](=O)[O-])cc3)C[C@@H]12 | 15.5 | 17.7 | 9.75 | 25 | 20.5 | 10.7 | 14.3 | 15.7 | 21.6 | 22.1 | 59.9 | 23 | 50.6 | 6.59 | 14.9 | 40.8 | 18 | 11.7 | 16.4 | 24.8
15 | Cc1cc(C)nc(SCCc2cccc[n+]2C)n1 | – | > 100 | > 100 | > 100 | > 100 | > 100 | > 100 | > 100 | > 100 | > 100 | > 100 | > 100 | > 100 | > 100 | > 100 | > 100 | > 100 | > 100 | > 100 | > 100
16 | O=C1C(Cl)C(c2cc3cc(Br)ccc3nc2Cl)N1c1ccc(Cl)cc1 (stereo unspecified) | 10.4 | > 25 | > 25 | 15.5 | 10.6 | > 25 | > 25 | 12.5 | 19.7 | 8.91 | 19.8 | 8.04 | 14.1 | 12.3 | 7.2 | 17.7 | 19.5 | > 25 | 8.25 | 9.69
17 | CC(=O)N1CC(=O)N2C(=O)/C(=C/c3ccc(Cl)cc3)N=C12 | > 100 | > 100 | > 100 | 56.4 | > 100 | > 100 | > 100 | > 100 | > 100 | > 100 | > 100 | > 100 | > 100 | > 100 | > 100 | > 100 | > 100 | > 100 | – | > 100
18 | O=C(c1cc2c(c3ccccc13)NCCN=C2C(F)(F)F)C(F)(F)F | 44.1 | – | > 100 | 75.4 | 38 | 50.1 | 33.5 | > 100 | > 100 | – | 35.4 | 33 | 27.4 | 47.1 | 86.6 | > 100 | > 100 | 40.3 | 72.7 | > 100
19 | CSc1nc(SC)c2ncn(C3CC(Oc4ccc(C)cc4)C(COc4ccc(C)cc4)O3)c2n1 (stereo unspecified) | > 100 | > 100 | > 100 | > 100 | – | > 100 | > 100 | > 100 | > 100 | > 100 | – | > 100 | > 100 | > 100 | > 100 | > 100 | > 100 | > 100 | > 100 | > 100
20 | COC(=O)C1C2CC3C1C3C2C(=O)OC (stereo unspecified) | > 100 | > 100 | > 100 | – | > 100 | > 100 | > 100 | > 100 | > 100 | > 100 | > 100 | > 100 | – | > 100 | > 100 | > 100 | > 100 | > 100 | > 100 | > 100
21 | NS(=O)(=O)c1ccc(Nc2c3ccccc3nc3c(C(=O)NCCO)cccc23)cc1 | 0.334 | 0.448 | 0.902 | > 1 | 0.0604 | 0.605 | 0.432 | 0.412 | 0.586 | 0.268 | 0.887 | 0.333 | 0.337 | 0.296 | 0.618 | 0.513 | – | 0.229 | 0.272 | 0.303
22 | N#Cc1nc(C(CO)N(Cc2ccccc2)C(=O)O)oc1N (stereo unspecified) | > 100 | > 100 | > 100 | > 100 | > 100 | > 100 | > 100 | > 100 | > 100 | – | > 100 | > 100 | > 100 | > 100 | > 100 | > 100 | > 100 | > 100 | > 100 | > 100
23 | Nc1ncnc2c1ncn2[C@H]1CC[C@@H](NO)C1 | > 100 | > 100 | > 100 | – | > 100 | > 100 | > 100 | > 100 | > 100 | > 100 | > 100 | > 100 | > 100 | > 100 | > 100 | > 100 | > 100 | > 100 | > 100 | > 100
24 | C[Si](C)(OCCS(=O)(=O)O)OC(=C1S(=O)(=O)OCCOS1(=O)=O)c1cccc2ccccc12 | > 100 | > 100 | > 100 | 36.9 | > 100 | > 100 | > 100 | > 100 | > 100 | > 100 | > 100 | > 100 | > 100 | > 100 | > 100 | > 100 | > 100 | > 100 | – | > 100
25 | O=c1c2cc([N+](=O)[O-])ccc2n2n1CCCC2 | – | > 100 | > 100 | > 100 | > 100 | > 100 | > 100 | > 100 | > 100 | > 100 | > 100 | > 100 | > 100 | > 100 | > 100 | > 100 | > 100 | > 100 | > 100 | > 100
